Experimental findings from patent US6803374B2, “Compounds useful for treating hepatitis C virus” (priority 2001, dated 2004) are described below.

The assay concerns the target T1, HCV NS5B RdRp genotype 1b (Hepatitis C virus genotype 1b, UniProt Q9WMX2).
T1 construct: The protein was expressed with an 18 amino acid C-terminal truncation to enhance the solubility; made in house; host or cells: E. coli BL21(DE3)
Put plainly: HCV NS5B RdRp enzyme assay. It is filed as biochemical. To be noted: IC50, HCV RdRp genotype 1b enzyme, C-terminal 18 aa truncated; average of single point IC50 values. How it is done:
HCV NS5B RdRp cloning, expression and purification. The cDNA encoding the NS5B protein of HCV, genotype 1b, was cloned into the pET21a expression vector. The protein was expressed with an 18 amino acid C-terminal truncation to enhance the solubility. The E. coli competent cell line BL21(DE3) was used for expression of the protein. Cultures were grown at 37° C. for ˜4 hours until the cultures reached an optical density of 2.0 at 600 nm. The cultures were cooled to 20° C. and induced with 1 mM IPTG. Fresh ampicillin was added to a final concentration of 50 ug/ml and the cells were grown overnight at 20° C.
Cell pellets (3L) were lysed for purification to yield 15-24 mgs of purified NS5B. The lysis buffer consisted of 20 mM Tris-HCl, pH 7.4, 500 mM NaCl, 0.5% triton X-100, 1 mM DTT, 1 mM EDTA, 20% glycerol, 0.5 mg/ml lysozyme, 10 mM MgCl2, 15 ug/ml deoxyribonuclease I, and Complete TM protease inhibitor tablets (Roche). After addition of the lysis buffer, frozen cell pellets were resuspended using a tissue homogenizer. To reduce the viscosity of the sample, aliquots of the lysate were sonicated on ice using a microtip attached to a Branson sonicator. The sonicated lysate was centrifuged at 100,000×g for 1 hr at 4° C. and filtered through a 0.2 μm filter unit (Corning).
The protein was purified using three sequential chromatography steps: Heparin sepharose CL-6B, polyU sepharose 4B, and Hitrap SP sepharose (Pharmacia). The chromatography buffers were identical to the lysis buffer but contained no lysozyme, deoxyribonuclease I, MgCl2 or protease inhibitor and the NaCl concentration of the buffer was adjusted according to the requirements for charging the protein onto the column. Each column was eluted with a NaCl gradient which varied in length from 5-50 column volumes depending on the column type. After the final chromatography step, the resulting purity of the enzyme is >90% based on SDS-PAGE analysis. The enzyme was aliquoted and stored at −80° C.
HCV NS5B RdRp enzyme assay. HCV RdRp genotype 1b assays were run in assay buffer composed of 20 mM Tris-HCl, pH 7.5, 2.5 mM KCl, 5 mM MgCl2, 1 mM DTT, 1.6 U RNAse inhibitor (Promega N2515), in 96 well plates (Falcon 3918). All compounds were serially diluted in DMSO and diluted further in assay buffer such that the final concentration of DMSO in the assay was 2%. Compounds were serially diluted (3-fold each time) for a 7 point inhibition analysis. HCV RdRp genotype 1b enzyme was used at a final concentration of 28 nM. A polyA template was used at 28 nM, and the oligo-dT12-18 primer was used at 840 nM final concentration. Preannealed primer and template were obtained commercially (Amersham 27-787802). ^3H-UTP was used at 0.125 μCi (1 μM total UTP). Reaction was initiated by the addition of enzyme. Reactions were incubated at 30° C. for 45 min, and stopped by adding 30 ul of 20% ice cold TCA. Plates were chilled for 30 minutes and harvested onto Unifilter-96, GF/B plates (Packard, 6005177) using a Packard FilterMate Cell Harvester. The harvest plates were prewashed 3 times, 200 ul/well, with 100 mM NaPPi. Harvested filters were washed 30 times, 200 ul/well, with distilled water followed by ethanol. Filter plates were dried, and 30 ul/well microscint-20 was added. Plates were read on a Packard Top Count NXT.
The IC50 values for compounds were determined using […] different [I], combined with 7 nM enzyme, 800 ng of the template-primer polyC/oligoG12 (1:5 molar ratio), and 0.7 uM of ^3H GTP containing 1 uCi. The observed fractional activity (fa=vi/vo) was used in the equation IC50=[I]/(1/fa-1) to determine a single point IC50 value. Typically, the single point IC50 values derived from [I] that produced fractional activities in the range of 0.1 to 0.8 relative to the uninhibited control were averaged to calculate the IC50 value for each compound.

T1 sequence (Q9WMX2 2420-2992): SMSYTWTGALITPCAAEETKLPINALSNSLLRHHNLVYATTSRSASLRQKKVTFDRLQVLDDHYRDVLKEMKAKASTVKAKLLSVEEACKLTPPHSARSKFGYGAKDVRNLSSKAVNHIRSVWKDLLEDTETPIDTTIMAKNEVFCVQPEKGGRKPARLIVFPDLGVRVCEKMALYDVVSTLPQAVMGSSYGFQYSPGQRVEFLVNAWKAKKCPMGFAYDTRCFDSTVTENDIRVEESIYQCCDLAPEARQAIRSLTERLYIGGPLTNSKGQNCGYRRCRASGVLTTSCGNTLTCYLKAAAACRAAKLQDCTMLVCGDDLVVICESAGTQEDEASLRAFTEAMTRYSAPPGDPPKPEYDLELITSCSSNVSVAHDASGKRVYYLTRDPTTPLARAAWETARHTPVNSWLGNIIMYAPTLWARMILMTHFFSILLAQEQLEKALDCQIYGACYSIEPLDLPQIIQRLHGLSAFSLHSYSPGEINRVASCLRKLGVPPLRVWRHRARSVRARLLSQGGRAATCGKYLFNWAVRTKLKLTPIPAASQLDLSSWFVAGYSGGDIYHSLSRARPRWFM

One may read the IC50 as the concentration at which inhibition is half-maximal. Low readings indicate inhibition by little substance, high ones a need for much substance. `CC(C)(C)OC(=O)C(Cc1ccc(OC(C)(C)C)cc1)NC(=O)c1cccc(COc2ccc(-c3nc4cc(-c5nnn[nH]5)ccc4n3C3CCCCC3)cc2)c1` (stereo not drawn) [Example 51] yielded an IC50 of 930 nM.

The compound `CC(NC(=O)c1ccc(-c2cccc(O)c2)c(COc2ccc(-c3nc4cc(-c5nnn[nH]5)ccc4n3C3CCCCC3)cc2)c1)C(=O)O` (stereo not drawn) [Example 52] gave an IC50 of 470 nM. Then `O=C(NC(Cc1ccc(O)cc1)C(=O)O)c1ccc(-c2cccc(O)c2)c(COc2ccc(-c3nc4cc(-c5nnn[nH]5)ccc4n3C3CCCCC3)cc2)c1` (stereo not drawn) [Example 53], with 570 nM. Compound `NC(=O)CCNC(=O)c1ccc(-c2cccc(O)c2)c(COc2ccc(-c3nc4cc(-c5nnn[nH]5)ccc4n3C3CCCCC3)cc2)c1` [Example 55] had a half-inhibitory concentration (IC50) of 200 nM.

Consider `CC(NC(=O)c1ccc(-c2ccc(F)c(Cl)c2)c(COc2ccc(-c3nc4cc(-c5nnn[nH]5)ccc4n3C3CCCCC3)cc2)c1)C(=O)O` (stereo not drawn) [Example 56], for which the concentration for half-maximal inhibition (IC50) was 190 nM. This IC50 and that of the compound before are within 1.5-fold of each other. Then `O=C(NC(Cc1ccc(O)cc1)C(=O)O)c1ccc(-c2ccc(F)c(Cl)c2)c(COc2ccc(-c3nc4cc(-c5nnn[nH]5)ccc4n3C3CCCCC3)cc2)c1` (stereo not drawn) [Example 57], with 180 nM; and `NC(=O)CCNC(=O)c1ccc(-c2ccc(F)c(Cl)c2)c(COc2ccc(-c3nc4cc(-c5nnn[nH]5)ccc4n3C3CCCCC3)cc2)c1` [Example 59], with 920 nM. Regarding `COc1ccc(-c2ccc(C(=O)NC(Cc3ccc(O)cc3)C(=O)O)cc2COc2ccc(-c3nc4cc(-c5nnn[nH]5)ccc4n3C3CCCCC3)cc2)cc1OC` (stereo not drawn) [Example 61], 90 nM corresponded to half-maximal inhibition (IC50).

In turn, `COc1ccc(-c2ccc(C(=O)NCCC(N)=O)cc2COc2ccc(-c3nc4cc(-c5nnn[nH]5)ccc4n3C3CCCCC3)cc2)cc1OC` [Example 63] returned an IC50 of 150 nM. Then `CN1CCN(C(=O)c2ccc(-c3cccc(O)c3)c(COc3ccc(-c4nc5cc(-c6nnn[nH]6)ccc5n4C4CCCCC4)cc3)c2)CC1` [Example 64], with 1200 nM; and `O=C(c1ccc(-c2cccc(O)c2)c(COc2ccc(-c3nc4cc(-c5nnn[nH]5)ccc4n3C3CCCCC3)cc2)c1)N1CCOCC1` [Example 65], with 1700 nM; and `O=C(c1ccc(-c2cccc(O)c2)c(COc2ccc(-c3nc4cc(-c5nnn[nH]5)ccc4n3C3CCCCC3)cc2)c1)N1CCCC1` [Example 66], with 1400 nM. Then `O=C(NCCCO)c1ccc(-c2cccc(O)c2)c(COc2ccc(-c3nc4cc(-c5nnn[nH]5)ccc4n3C3CCCCC3)cc2)c1` [Example 67], with 790 nM; and `CNC(=O)c1ccc(-c2cccc(O)c2)c(COc2ccc(-c3nc4cc(-c5nnn[nH]5)ccc4n3C3CCCCC3)cc2)c1` [Example 68], with 540 nM; and `O=C(c1ccc(-c2cccc(O)c2)c(COc2ccc(-c3nc4cc(-c5nnn[nH]5)ccc4n3C3CCCCC3)cc2)c1)N1CCC(O)CC1` [Example 69], with 660 nM.

In turn, `O=C(c1ccc(-c2cccc(O)c2)c(COc2ccc(-c3nc4cc(-c5nnn[nH]5)ccc4n3C3CCCCC3)cc2)c1)N(CCO)CCO` [Example 70] had a half-inhibitory concentration (IC50) of 500 nM.

With `CC(NC(=O)c1ccc(-c2cccc(O)c2)c(COc2ccc(-c3nc4cc(-c5nnn[nH]5)ccc4n3C3CCCCC3)cc2)c1)C(=O)OC(C)(C)C` (stereo not drawn) [Example 71], the half-maximal inhibitory concentration (IC50) amounted to 520 nM.

In turn, `CC(C)(C)OC(=O)CNC(=O)c1ccc(-c2cccc(O)c2)c(COc2ccc(-c3nc4cc(-c5nnn[nH]5)ccc4n3C3CCCCC3)cc2)c1` [Example 72] came in with an IC50 of 930 nM. For the compound `O=C(O)CNC(=O)c1ccc(-c2cccc(O)c2)c(COc2ccc(-c3nc4cc(-c5nnn[nH]5)ccc4n3C3CCCCC3)cc2)c1` [Example 74], the IC50 was determined as 150 nM. Then `O=C(c1ccc(-c2ccc(F)c(Cl)c2)c(COc2ccc(-c3nc4cc(-c5nnn[nH]5)ccc4n3C3CCCCC3)cc2)c1)N1CCOCC1` [Example 76], with 1400 nM; and `O=C(c1ccc(-c2ccc(F)c(Cl)c2)c(COc2ccc(-c3nc4cc(-c5nnn[nH]5)ccc4n3C3CCCCC3)cc2)c1)N1CCCC1` [Example 77], with 1200 nM.
